# Data published in article PMC12181260, “Design and synthesis of novel pyridopyrimidine moieties linked to coumarin ring of potentially active cytotoxic agents and their docking study” (Scientific Reports, 2025).
# How the values were obtained:
# VERO = experiment: Cytotoxicity (anticancer screening) on VERO; type: cell-based; settings: Chlorocebus sabaeus, normal adult African green monkey kidney cell line, 72 h of incubation
# From the text: (§1) Keeping the aforementioned details in mind, the objective of this study was to synthesize new pharmaceuticals for anticancer assessment as a trial to produce newer antitumor drugs with increased activity and minimal adverse effects. Human hepatocellular liver carcinoma cell line (HepG2), human lung fibroblast cell line (WI-38), human breast adenocarcinoma cell line (MCF-7), and normal adult African green monkey kidney cell line (VERO) were the four different types of […] cell lines used to test the anticancer activity of all newly synthesized compounds (Fig. 5).
# (§2) It was carried out according to the previously reported work[48].
# MCF-7 = experiment: Cytotoxicity (anticancer screening) on MCF-7; type: cell-based, human; settings: for IC50: MCF7, human breast adenocarcinoma cell line, 72 h of incubation; for activity class against MCF-7: SAR statement, four tested cell lines
# From the text: as §1, §2
# WI-38 = experiment: Cytotoxicity (anticancer screening) on WI-38; type: cell-based, human; settings: for IC50: WI-38, human lung fibroblast cell line, 72 h of incubation; for activity class against WI-38: SAR statement, four tested cell lines
# From the text: as §1, §2
# HepG2 = experiment: Cytotoxicity (anticancer screening) on HepG2; type: cell-based, human; settings: for IC50: HepG2, human hepatocellular liver carcinoma cell line, 72 h of incubation; for activity class against HepG2: SAR statement, four tested cell lines
# From the text: as §1, §2
Structure (SMILES),IC50 (VERO),IC50 (MCF-7),IC50 (WI-38),IC50 (HepG2),activity class against MCF-7 (MCF-7),activity class against WI-38 (WI-38),activity class against HepG2 (HepG2)
"Cc1cc(=O)oc2c1ccc1oc(=N)c(C#N)cc12 [Compound 3, 8-imino-4-methyl-2-oxo-2 H,8 H-pyrano[2,3-f]chromene-9-carbonitrile]",71.02 ± 0.05 µg/mL,70 ± 0.06 µg/mL,68.2 ± 0.07 µg/mL,59 ± 0.22 µg/mL,,,
"Cc1cc(=O)oc2c1ccc1oc3nc(CC#N)nc(=N)c-3cc12 [Compound 4, 2-(11-Imino-4-methyl-2-oxo-2 H,11 H-pyrano[2’,3’:5,6]chromeno[2,3-d]pyrimidin-9-yl) acetonitrile]",34.1 ± 0.15 µg/mL,31.4 ± 0.11 µg/mL,31 ± 0.01 µg/mL,24.5 ± 0.11 µg/mL,,,
"Cc1cc(=O)oc2c3c(ccc12)Oc1nc(CC#N)nc2nc(N)c(C#N)c-3c12 [Compound 5, 2-amino-5-(cyanomethyl)-10-methyl-12-oxo-12 H-7,13-dioxa-3,4,6-triazabenzo[no]tetraphene-1-carbonitrile]",31.2 ± 0.02 µg/mL,30 ± 1.01 µg/mL,27.5 ± 0.31 µg/mL,21.2 ± 1.22 µg/mL,,,
"O=c1[nH]cc(F)c(=O)[nH]1 [Compound 5-Flu, 5-fluorouracil, reference compound]",4 ± 0.04 µg/mL,3 ± 0.02 µg/mL,5.5 µg/mL,2.5 ± 1.03 µg/mL,,,
"Cc1cc(=O)oc2c3c(ccc12)Oc1nc(CC#N)nc2nc(-c4ccccc4)cc-3c12 [Compound 6, 2-(10-Methyl-12-oxo-2-phenyl-12 H-7,13-dioxa-3,4,6-triazabenzo[no]tetraphene-5-yl) acetonitrile]",24.1 ± 0.19 µg/mL,22.5 ± 0.04 µg/mL,26 ± 0.21 µg/mL,19.1 ± 1.13 µg/mL,,,
"Cc1cc(=O)oc2c3c(ccc12)Oc1nc(CC#N)nc2nc4c(c-3c12)CCC4 [Compound 7, 2-(14-Methyl-12-oxo-9,10-dihydro-8 H,12 H-3,11-dioxa-4,6,7-triazaindeno[6,5,4-no]tetraphen-5-yl)acetonitrile]",11.5 ± 0.05 µg/mL,9.5 ± 0.04 µg/mL,9.9 ± 1.04 µg/mL,9.6 ± 1.22 µg/mL,very strong (1–10 (very strong)),very strong (1–10 (very strong)),very strong (1–10 (very strong))
"Cc1cc(=O)oc2c3c(ccc12)Oc1nc(CC#N)nc2nc4c(c-3c12)CCCC4 [Compound 8, 2-(15-Methyl-13-oxo-8,9,10,11-tetrahydro-13 H-3,12-dioxa-4,6,7-triazanaphtho[3,2,1-no]tetraphen-5-yl)acetonitrile]",5.7 ± 0.06 µg/mL,5.1 ± 0.18 µg/mL,7.5 ± 0.01 µg/mL,4.9 ± 0.11 µg/mL,very strong (1–10 (very strong)),very strong (1–10 (very strong)),very strong (1–10 (very strong))
"Cc1cc(=O)oc2c3c(ccc12)Oc1nc(CC#N)nc2nc4c(c-3c12)CCCCC4 [Compound 9, 2-(16-Methyl-14-oxo-9,10,11,12-tetrahydro-8 H,14 H-3,13-dioxa-4,6,7-triazacyclohepta[4,5]benzo[1,2,3-no]tetraphen-5-yl)acetonitrile]",6.6 ± 0.02 µg/mL,7.2 ± 1.02 µg/mL,5.9 ± 0.03 µg/mL,5.4 ± 1.22 µg/mL,very strong (1–10 (very strong)),very strong (1–10 (very strong)),very strong (1–10 (very strong))
"Cc1cc(=O)oc2c3c(ccc12)Oc1nc(CC#N)nc2nc4c(c-3c12)CCCCCC4 [Compound 10, 2-(17-Methyl-15-oxo-8,9,10,11,12,13-hexahydro-15 H-3,14-dioxa-4,6,7-triazacycloocta[4,5]benzo[1,2,3-no]tetraphen-5-yl)acetonitrile]",8.2 ± 1.04 µg/mL,8.9 ± 1.02 µg/mL,7.8 ± 0.1 µg/mL,5.8 ± 1.03 µg/mL,very strong (1–10 (very strong)),very strong (1–10 (very strong)),very strong (1–10 (very strong))
"Cc1cc(=O)oc2c1ccc1[nH]c(=O)c(C#N)cc12 [Compound 11, 4-Methyl-2,8-dioxo-7,8-dihydro-2 H-pyrano[2,3-f]quinoline-9-carbonitrile]",35.5 ± 0.01 µg/mL,33.3 ± 1.06 µg/mL,39.01 ± 0.07 µg/mL,32.2 ± 1.22 µg/mL,,,
"Cc1cc(=O)oc2c1ccc1oc(=N)c(C(N)=O)cc12 [Compound 12, 8-Imino-4-methyl-2-oxo-2 H,8 H-pyrano[2,3-f]chromene-9-carboxamide]",51.3 ± 1.05 µg/mL,49.4 ± 0.19 µg/mL,48.2 ± 1.04 µg/mL,37.5 ± 1.13 µg/mL,,,
"Cc1cc(=O)oc2c3c(ccc12)NC(=O)C1=C(N)OC2=C(CCC2)C13 (centres unmarked) [Compound 13, 2-Amino-7-methyl-10c,11,12,13-tetrahydro-3 H-cyclopenta[5,6]pyrano[3,4-c]pyrano[2,3-f]quinoline-3,9(4 H)-dione]",58.2 ± 1.05 µg/mL,53 ± 0.19 µg/mL,56 ± 1.14 µg/mL,45.2 ± 1.13 µg/mL,,,
"Cc1cc(=O)oc2c3c(ccc12)OC(N)=C1C(=O)NC2=C(CCC2)C13 (centres unmarked) [Compound 14, 3-Amino-7-methyl-10c,11,12,13-tetrahydro-9 H-cyclopenta[b]pyrano [2’,3’:5,6]chromeno [4,3-d]pyridine-2,9(1 H)-dione]",58 ± 1.02 µg/mL,52 ± 0.01 µg/mL,56 ± 0.32 µg/mL,49 ± 1.22 µg/mL,,,
"Cc1cc(=O)oc2c1ccc1oc(=O)c(C#N)cc12 [Compound 15, 4-Methyl-2,8-dioxo-2 H,8 H-pyrano[2,3-f]chromene-9-carbonitrile]",40.3 ± 1.19 µg/mL,37.03 ± 0.04 µg/mL,38 ± 1.22 µg/mL,35.2 ± 1.13 µg/mL,,,
"CCOC(=O)c1cc2c(ccc3c(C)cc(=O)oc32)oc1=N [Compound 16, ethyl 8-imino-4-methyl-2-oxo-2 H,8 H-pyrano[2,3-f]chromene-9-carboxylate]",57.5 ± 0.05 µg/mL,52.1 ± 0.04 µg/mL,59.3 ± 1.04 µg/mL,52.5 ± 1.22 µg/mL,,,
"Cc1cc(=O)oc2c1ccc1oc(=N)c3c(=O)oc4c(c3c12)CCC4 [Compound 17, 3-Imino-7-methyl-3,11,12,13-tetrahydro-2 H,9 H-cyclopenta[5,6]pyrano[3,4-c]pyrano [2,3-f]chromene-2,9-dione]",56.2 ± 1.06 µg/mL,52.5 ± 0.18 µg/mL,53.5 ± 0.1 µg/mL,40.2 ± 0.23 µg/mL,,,
"CCOC(=O)c1cc2c(ccc3c(C)cc(=O)oc32)oc1=O [Compound 18, Ethyl 4-methyl-2,8-dioxo-2 H,8 H-pyrano[2,3-f]chromene-9-carboxylate]",66.5 ± 1.02 µg/mL,57 ± 1.23 µg/mL,60.4 ± 0.03 µg/mL,54 ± 0.22 µg/mL,,,
